One data set relates to Apaf-1. Put plainly: Western blot, protein expression in MDA-MB-231 cells. Type of data set: cell-based, human. The following applies: 30 μM, 48 h. How it is done:
(§1) Cells from control regime and andrographolide treatment (30 μM, 48 h) were used for Western blot. After centrifugation, cell pellets were lysed in RIPA buffer containing protease and phosphatase inhibitors (Roche, Germany). Each cell lysate was used for protein assay with Bio-Rad protein assay kit (Bio-Rad, USA). A protein sample of 50 μg was electrophoresed in a 12 % SDS-PAGE. Proteins were electro-transferred from the gel onto a nitrocellulose membrane (Amersham Biosciences, UK). After incubating with blocking buffer containing 5 % nonfat milk for 1 h, the membranes were probed with the primary antibody specific for Bcl-xL (1:750 dilution), Bcl-2 (1:1000), Bax (1:1000), cytochrome c (1:800) and Apaf-1 (1:500) at 4 °C. Membrane was then washed thrice with TBST (Tris buffered saline having 0.1 % Tween-20, pH 7.5), exposed to horseradish peroxidase conjugated secondary antibody (1:2500) and was then kept at 25 °C for 1 h. The membrane was then finally washed thrice with TBST. The protein bands were visualized by incubating the membrane with diaminobenzidine/hydrogen peroxide (Sigma-Aldrich) for color reaction. β-Actin and COX IV were also detected as loading controls.

Another data set concerns Bcl-2. The description is as above. Type of data set: cell-based, human. The conditions noted are these: 30 μM, 48 h. How it is done: as §1
The test system of another data set is platelets. Further details: method as in PMID 21822619; dose or concentration left out as unconfirmed. The conditions noted are these: cited from earlier work.

Take `C=C1CC[C@@H]2[C@](C)(CO)[C@H](O)CC[C@@]2(C)[C@@H]1C/C=C1/C(=O)OC[C@H]1O` [andrographolide]: in the data set with Apaf-1, the “Apaf-1 expression, increase” value is given as 1.49 ± 0.17 fold. Also, the “Bcl-2 expression, down regulated” value in the data set on Bcl-2 came out at 1.96 ± 0.14 fold. For the same compound, the “cytotoxic effect on platelets” value in the data set on platelets is given as “no cytotoxic effect”.

(Values after PMC4833932, “Cytotoxicity and cell cycle arrest induced by andrographolide lead to programmed cell death of MDA-MB-231 breast cancer cell line” (Journal of Biomedical Science, 2016).)
